Reference: patent US10045980B2, “Inhibitor of p38 map kinase” (RESPIVERT LTD, priority 2014, dated 2018)

Tested on: BEAS2B cells infected with human rhinovirus RV16
Assay: Rhinovirus-induced IL-8 release
Format: cell-based
Conditions: FIG. 9
Procedure: Human rhinovirus RV16 is obtained from the American Type Culture Collection (Manassas, Va.). Viral stocks are generated by infecting MRC5 cells with HRV until 80% of the cells were cytopathic.
BEAS2B cells are infected with HRV at an MOI of 1.2 and incubated for 1 h at 33° C. with gentle shaking for to promote absorption. The cells are then washed with PBS, fresh media added and the cells are incubated for a further 72 h. The supernatant is collected for assay of IL-8 concentrations using a Duoset ELISA development kit (R&D systems, Minneapolis, Minn.). Compounds are added 2 h before HRV infection and 1 h after infection when non-infected HRV is washed out.

**Q.** Which “inhibition of HRV-induced IL-8” value does the source give for `CCc1cncc(Nc2cc(COc3ccc(NC(=O)Nc4cc(C(C)(C)C)nn4-c4ccc(C)cc4)c4ccccc34)ccn2)n1` [Compound of the invention, 1-(3-(tert-butyl)-1-(p-tolyl)-1H-pyrazol-5-yl)-3-(4-((2-((6-ethylpyrazin-2-yl)amino)pyridin-4-yl)methoxy)naphthalen-1-yl)urea] here?
**A.** dose-dependent inhibition
